Measured values from patent US9708336B2, “Metallo-beta-lactamase inhibitors” (priority 2014, dated 2017).
Where two headings read alike, the source gives them in different places.

Assays:
[1] = tested on: Escherichia coli expressing NDM-1 (CLB30005); experiment: Antibiotic potentiation activity: synergistic concentration (MITC95) with imipenem, OD600 growth; format: cell-based; details: for Escherichia coli expressing NDM-1 (CLB 30005) MITC95: concentration giving 95% inhibition of bacterial growth; for Escherichia coli MITC95: Escherichia coli expressing NDM-1 (CLB30005), 95% growth inhibition
Method in brief: (§1)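 Absorbance after a 22–24 h, 35 °C incubation served as the read-out. Wells held bacteria (saline suspension diluted 1:100 into 1.1× CAMHB), imipenem at 4 μg/ml final or optionally 1 μg/ml, and test compound.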

[2] = tested on: Serratia marcescens expressing IMP-1 (CL5741); experiment: as above; format: cell-based; details: for Serratia marcescens expressing IMP-1 (CL5741) MITC95: concentration giving 95% inhibition of bacterial growth; for Serratia marcescens MITC95: Serratia marcescens expressing IMP-1 (CL5741), 95% growth inhibition
Method in brief: as §1

[3] = tested on: Klebsiella pneumoniae expressing VIM-1 (IHMA599644); experiment: as above; format: cell-based; details: for Klebsiella pneumoniae expressing VIM-1 (IHMA 599644) MITC95: concentration giving 95% inhibition of bacterial growth; for Klebsiella pneumoniae MITC95: Klebsiella pneumoniae expressing VIM-1 (IHMA599644), 95% growth inhibition
Method in brief: as §1

NDM-1 = NDM-1 (Klebsiella pneumoniae, UniProt C7C422); experiment: biochemical; format: biochemical; details: read-out: NDM-1 IC50
VIM-1 = VIM-1 (Pseudomonas aeruginosa (strain ATCC 15692 / DSM 22644 / CIP 104116 / JCM 14847 / LMG 12228 / 1C / PRS 101 / PAO1), UniProt A0A0F7KYQ8); experiment: Enzyme activity: determination of IC50, fluorescence assay with CCF2-FA substrate (VIM-1); format: biochemical
IMP-1 = IMP-1 (Serratia marcescens, UniProt P52699); experiment: biochemical; format: biochemical; details: read-out: IMP-1 IC50
[4] = fluorescence assay with CCF2-FA substrate
[5] = fluorescence assay with CCF2-FA substrate, read-out: VIM-1 IC50
[6] = NDM-1 enzyme, CCF2-FA fluorescence assay
[7] = VIM-1 enzyme, CCF2-FA fluorescence assay, read-out: VIM-1 IC50
[8] = IMP-1 enzyme, CCF2-FA fluorescence assay
[9] = VIM-1 IC50, fluorescence assay with CCF2-FA substrate

IMP-1, sequence (P52699 whole entry, looked up): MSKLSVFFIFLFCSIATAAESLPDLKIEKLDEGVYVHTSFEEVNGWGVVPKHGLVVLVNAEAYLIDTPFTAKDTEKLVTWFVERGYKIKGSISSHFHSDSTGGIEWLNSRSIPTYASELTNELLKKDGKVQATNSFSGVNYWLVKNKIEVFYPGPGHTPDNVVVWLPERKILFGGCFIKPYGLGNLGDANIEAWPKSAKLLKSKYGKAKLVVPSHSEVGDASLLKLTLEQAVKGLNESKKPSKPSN
NDM-1, sequence (C7C422 whole entry, looked up, species assumed): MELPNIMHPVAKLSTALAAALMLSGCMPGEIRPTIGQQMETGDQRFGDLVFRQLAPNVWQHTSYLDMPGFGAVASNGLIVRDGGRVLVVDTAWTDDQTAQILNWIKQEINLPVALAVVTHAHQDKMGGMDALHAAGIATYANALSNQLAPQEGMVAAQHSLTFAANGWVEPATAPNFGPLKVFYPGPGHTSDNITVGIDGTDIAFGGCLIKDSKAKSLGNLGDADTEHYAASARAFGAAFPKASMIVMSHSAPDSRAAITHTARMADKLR

`N#CC1CC=C(c2cccc(S(N)(=O)=O)c2-c2nn[nH]n2)CC1` (stereo not drawn) [Example 64, 3-(4-cyanocyclohex-1-en-1-yl)-2-(2H-tetrazol-5-yl)benzenesulfonamide] was tested. Which “Escherichia coli expressing NDM-1 (CLB 30005) MITC95” value [1] did it give?
Its value is 1.953 µM.

What about the “Serratia marcescens expressing IMP-1 (CL5741) MITC95” value [2] of the same compound?
The value was 50 µM.

What about the “Klebsiella pneumoniae expressing VIM-1 (IHMA 599644) MITC95” value [3] of the same compound?
The value was 200 µM.

And the IC50 (NDM-1; [4])?
Its IC50 is 13.4 nM.

And the IC50 (VIM-1; [5])?
Its IC50 is 588 nM.

What about the IC50 (IMP-1; [4]) of the same compound?
Its IC50 is 248 nM.

How did the “Escherichia coli expressing NDM-1 (CLB 30005) MITC95” value [1] turn out when `NS(=O)(=O)c1nccc(-c2ccc3cccnc3c2)c1-c1nn[nH]n1` [Example 213, 4-(quinolin-7-yl)-3-(2H-tetrazol-5-yl)pyridine-2-sulfonamide] was run?
Its value is 1.042 µM.

What about the “Serratia marcescens expressing IMP-1 (CL5741) MITC95” value [2] of the same compound?
Its value is 37.5 µM.

What about the “Klebsiella pneumoniae expressing VIM-1 (IHMA 599644) MITC95” value [3] of the same compound?
Its value is 100 µM.

What about the IC50 (NDM-1; [4]) of the same compound?
Its IC50 is 51 nM.

What about the IC50 (VIM-1; [5]) of the same compound?
Its IC50 is 62.4 nM.

And the IC50 (IMP-1; [4])?
Its IC50 is 564 nM.

Which “Escherichia coli MITC95” value [1] does the source give for `NS(=O)(=O)c1cccc(-c2ccn3cncc3c2)c1-c1nn[nH]n1` [Example 247, 3-(Imidazo[1,5-a]pyridin-7-yl)-2-(2H-tetrazol-5-yl)benzenesulfonamide] here?
Its value is 0.3906 µM.

What about the “Serratia marcescens MITC95” value [2] of the same compound?
The value was 25 µM.

What about the “Klebsiella pneumoniae MITC95” value [3] of the same compound?
Its value is 37.5 µM.

And the IC50 (NDM-1; [6])?
The IC50 was 14.6 nM.

What about the IC50 (VIM-1; [7]) of the same compound?
The IC50 was 116 nM.

And the IC50 (IMP-1; [8])?
The IC50 was 479 nM.

For `NS(=O)(=O)c1cccc(-c2ccnnc2)c1-c1nn[nH]n1` [Example 47, 3-pyridazin-4-yl-2-(2H-tetrazol-5-yl)benzenesulfonamide], which “Escherichia coli expressing NDM-1 (CLB 30005) MITC95” value [1] is on record?
Its value is 0.7813 µM.

And the “Serratia marcescens expressing IMP-1 (CL5741) MITC95” value [2]?
Its value is 50 µM.

And the “Klebsiella pneumoniae expressing VIM-1 (IHMA 599644) MITC95” value [3]?
Its value is over 200 µM.

And the IC50 (NDM-1; [4])?
Its IC50 is 345 nM.

And the IC50 (VIM-1; [5])?
The IC50 was 5360 nM.

What about the IC50 (IMP-1; [4]) of the same compound?
Its IC50 is 4160 nM.

How did the “Escherichia coli expressing NDM-1 (CLB 30005) MITC95” value [1] turn out when `NS(=O)(=O)c1cccc(-c2cncc(F)c2)c1-c1nn[nH]n1` [Example 83, 3-(5-fluoropyridin-3-yl)-2-(2H-tetrazol-5-yl)benzenesulfonamide] was run?
Its value is 0.3906 µM.

And the “Serratia marcescens expressing IMP-1 (CL5741) MITC95” value [2]?
The value was 50 µM.

What about the “Klebsiella pneumoniae expressing VIM-1 (IHMA 599644) MITC95” value [3] of the same compound?
The value was 25 µM.

What about the IC50 (NDM-1; [4]) of the same compound?
The IC50 was 5.97 nM.

What about the IC50 (VIM-1; [9]) of the same compound?
Its IC50 is 43.6 nM.

And the IC50 (IMP-1; [4])?
The IC50 was 520 nM.

Which “Escherichia coli expressing NDM-1 (CLB 30005) MITC95” value [1] does the source give for `NS(=O)(=O)c1cccc(-c2ccc(N3CCCCC3)cc2)c1-c1nn[nH]n1` [Example 18, 4′-piperidin-1-yl-2-(2H-tetrazol-5-yl)biphenyl-3-sulfonamide] here?
Its value is 3.906 µM.

What about the “Serratia marcescens expressing IMP-1 (CL5741) MITC95” value [2] of the same compound?
Its value is 103.1 µM.

What about the “Klebsiella pneumoniae expressing VIM-1 (IHMA 599644) MITC95” value [3] of the same compound?
Its value is over 200 µM.

What about the IC50 (NDM-1; [4]) of the same compound?
The IC50 was 2.04 nM.

And the IC50 (VIM-1; [9])?
The IC50 was 326 nM.

What about the IC50 (IMP-1; [4]) of the same compound?
The IC50 was 23.4 nM.

What does the source list for `NS(=O)(=O)c1cccc(-c2ccc(C3CCNC3=O)cc2)c1-c1nnn[nH]1` (stereo not drawn) [Example 27, 4′-(2-oxopyrrolidin-3-yl)-2-(1H-tetrazol-5-yl)biphenyl-3-sulfonamide]?
Escherichia coli expressing NDM-1 (CLB 30005) MITC95 [1]: 3.125 µM; Serratia marcescens expressing IMP-1 (CL5741) MITC95 [2]: 3.125 µM; Klebsiella pneumoniae expressing VIM-1 (IHMA 599644) MITC95 [3]: 200 µM; IC50 (NDM-1; [4]): 2.23 nM; IC50 (VIM-1; [5]): 77.1 nM; IC50 (IMP-1; [4]): 13.1 nM

Which “Escherichia coli expressing NDM-1 (CLB 30005) MITC95” value [1] does the source give for `NS(=O)(=O)c1cccc(-c2ccc3ccncc3c2)c1-c1nn[nH]n1` [Example 71, 3-isoquinolin-7-yl-2-(2H-tetrazol-5-yl)benzenesulfonamide] here?
Its value is 0.7813 µM.

And the “Serratia marcescens expressing IMP-1 (CL5741) MITC95” value [2]?
Its value is 18.75 µM.

What about the “Klebsiella pneumoniae expressing VIM-1 (IHMA 599644) MITC95” value [3] of the same compound?
Its value is 75 µM.

And the IC50 (NDM-1; [4])?
The IC50 was 1.22 nM.

And the IC50 (VIM-1; [5])?
The IC50 was 14.5 nM.

And the IC50 (IMP-1; [4])?
Its IC50 is 78.6 nM.

`Nc1ncc(-c2cccc(S(N)(=O)=O)c2-c2nnn[nH]2)cn1` [Example 301, 3-(2-aminopyrimidin-5-yl)-2-(1H-tetrazol-5-yl)benzenesulfonamide] was tested. Which “Escherichia coli MITC95” value [1] did it give?
The value was 0.7813 µM.

And the “Serratia marcescens MITC95” value [2]?
The value was 37.5 µM.

And the “Klebsiella pneumoniae MITC95” value [3]?
The value was 25 µM.

And the IC50 (NDM-1; [6])?
The IC50 was 8.2 nM.

And the IC50 (VIM-1; [7])?
The IC50 was 282 nM.

What about the IC50 (IMP-1; [8]) of the same compound?
Its IC50 is 1380 nM.

What does the source list for `NS(=O)(=O)c1cccc(-c2ccnn2Cc2ccccc2)c1-c1nn[nH]n1` [Example 95, 3-(1-benzyl-1H-pyrazol-5-yl)-2-(2H-tetrazol-5-yl)benzenesulfonamide]?
Escherichia coli expressing NDM-1 (CLB 30005) MITC95 [1]: 3.906 µM; Serratia marcescens expressing IMP-1 (CL5741) MITC95 [2]: 106.3 µM; Klebsiella pneumoniae expressing VIM-1 (IHMA 599644) MITC95 [3]: >200 µM; IC50 (NDM-1; [4]): 1.51 nM; IC50 (VIM-1; [9]): 375 nM; IC50 (IMP-1; [4]): 534 nM

What does the source list for `CONC(=O)c1ccc(-c2cccc(S(N)(=O)=O)c2-c2nn[nH]n2)cc1` [Example 88, N-methoxy-3′-sulfamoyl-2′-(2H-tetrazol-5-yl)biphenyl-4-carboxamide]?
Escherichia coli expressing NDM-1 (CLB 30005) MITC95 [1]: 1.953 µM; Serratia marcescens expressing IMP-1 (CL5741) MITC95 [2]: 12.5 µM; Klebsiella pneumoniae expressing VIM-1 (IHMA 599644) MITC95 [3]: 100 µM; IC50 (NDM-1; [4]): 2.98 nM; IC50 (VIM-1; [5]): 243 nM; IC50 (IMP-1; [4]): 87.3 nM
